Data as given in EP4775582A1, “MACROCYCLIC COMPOUND AND ANTIBODY-DRUG CONJUGATE THEREOF” (Genfleet Therapeutics (Shanghai) Inc., priority 2023, dated 2025).
Where two headings read alike, the source gives them in different places.

How the values were obtained:
KRAS WT-cRAF = KRAS WT-cRAF (Homo sapiens, UniProt P01116+P62937); assay: Assay for binding of KRAS to cRAF (HTRF, with Cyclophilin A), KRAS WT; conditions: read-out: KRAS WT-cRAF binding assay, GPPNP-KRAS WT, IC50 values
Protocol: (§3) The plate was centrifuged at 1000 rpm for 1 min and then incubated in the thermostatic incubator at 20 °C for 30 min. […] The plate was centrifuged at 1000 rpm for 1 min and then incubated in the thermostatic incubator at 20 °C for 60 min. […] The working solution was added to the aforementioned assay plate at 5 µL/well. The plate was centrifuged at 1000 rpm for 1 min and then incubated in the thermostatic incubator at 20 °C for 60 min.

KRAS G12V-cRAF = KRAS G12V-cRAF (Homo sapiens, UniProt P01116+P62937, G12V); assay: Assay for binding of KRAS to cRAF (HTRF, with Cyclophilin A), KRAS G12V; conditions: read-out: KRAS G12V-cRAF binding assay, GPPNP-KRAS G12V, IC50 values
KRAS G12V-cRAF, sequence (P01116 1-188 isoform P01116-2 G12V): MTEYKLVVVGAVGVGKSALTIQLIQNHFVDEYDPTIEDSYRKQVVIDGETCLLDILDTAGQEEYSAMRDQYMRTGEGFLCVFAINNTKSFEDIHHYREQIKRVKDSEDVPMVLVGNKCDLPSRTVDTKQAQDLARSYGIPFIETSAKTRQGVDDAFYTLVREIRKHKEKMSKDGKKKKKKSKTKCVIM
KRAS G12V-cRAF, sequence (P62937 whole entry): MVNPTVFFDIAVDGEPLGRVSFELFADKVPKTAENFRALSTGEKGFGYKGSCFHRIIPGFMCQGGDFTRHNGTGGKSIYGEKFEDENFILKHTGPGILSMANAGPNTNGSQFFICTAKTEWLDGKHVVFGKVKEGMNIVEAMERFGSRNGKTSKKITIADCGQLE
Protocol: as §3

AsPC-1 cells = assay: 3D cell proliferation assay (CellTiter Glo-3D), AsPC-1; type: cell-based, human
Protocol: (§1) The cells were digested with trypsin (containing EDTA), collected in their respective low-serum complete media containing 2% FBS (for MIA Paca-2 cell culture: DMEM + 2% FBS + 0.5% Horse serum + 1% PS), and counted. After the cell density was adjusted as required, 200 MIA PaCa-2 cells, 800 AsPC-1 cells, 800 NCI-H441 cells, or 400 NCI-H1975 cells per well were seeded into a 384-well cell culture plate, with the volume of the medium in each well being 45 µL. The cell culture plate was incubated in an incubator at 37 °C with 5% CO2 overnight. […] On the day after cell seeding, 5 µL of the 10× compound stock solution was added to each cell culture well. […] In addition to the compound-treated wells described above, cell-containing DMSO control wells (with 5 µL of the complete medium containing 1% DMSO added to each well) and cell-free medium control wells (containing 50 µL of the complete medium with 2% FBS) were also set. The culture plate was incubated in an incubator at 37 °C with 5% CO2 for another 5 days, and then 30 µL of CellTiter-Glo working solution was added to each well. The mixture was well mixed, incubated for 30 min, left to stand at room temperature for 30 min, and then transferred to a white-bottomed, opaque 384-well assay plate at 40 µL/well. […] Using an XLfit software, the IR (%) values were plotted against the logarithm of the compound concentrations, and the dose-response curves were fitted using the four-parameter method to calculate the IC50 values.

AsPC-1 p-ERK = assay: Cell p-ERK assay (HTRF), AsPC-1 cells; type: cell-based, human
Protocol: (§2) The cells were digested with trypsin (containing EDTA), collected in their corresponding complete media, and counted. The density of the cell suspensions was adjusted with their corresponding complete media, and 10000 AsPC-1 cells or 20000 NCI-H441 cells per well were seeded into a 96-well cell culture plate, with the volume of the medium in each well being 80 µL. The cell culture plate was incubated in an incubator at 37 °C with 5% CO2 overnight. […] On the day after cell seeding, 20 µL of the 5× compound stock solution was added to each cell culture well. […] In addition to the compound-treated wells described above, cell-containing DMSO control wells were also set. A complete medium containing 0.5% DMSO was added at 20 µL/well. After the mixture was well mixed, the culture plate was incubated in the incubator at 37 °C with 5% CO2 for another 3 h. The medium was then removed from the culture wells, and 50 µL of cell lysis buffer (from Advance ERK phospho-T202/Y204 kit) was added to each well. The mixture was well mixed and incubated for 30 min. Then, 16 µL of the mixture was transferred to a white-bottomed, opaque 96-well assay plate, and separately, 16 µL of cell lysis buffer was added to additional wells (serving as blank wells) in the assay plate. After the transfer was completed, 4 µL of p-ERK HTRF antibody mixture (from Advance ERK phospho-T202/Y204 kit) was added to each well of the assay plate, followed by a 4-hour incubation. […] Using an XLfit software, the IR (%) values were plotted against the logarithm of the compound concentrations, and the dose-response curves were fitted using the four-parameter method to calculate the IC50 values.

NCI-H441 cells = assay: 3D cell proliferation assay (CellTiter Glo-3D), NCI-H441; type: cell-based, human; conditions: NCI-H441 cells (KRAS G12V), 2% FBS, 5 days, read-out: H441 AP IC50
Protocol: as §1

H441 p-ERK = assay: Cell p-ERK assay (HTRF), NCI-H441 cells; type: cell-based, human; conditions: NCI-H441 cells (KRAS G12V), 3 h incubation
Protocol: as §2

[1] = Homo sapiens, ASPC1, 120 h, read-out: AsPC-1 AP IC50(nM)
[2] = Homo sapiens, ASPC1, 3 h, read-out: AsPC-1 p-ERK IC50(nM)

KRAS WT-cRAF, sequence (P01116 1-188 isoform P01116-2): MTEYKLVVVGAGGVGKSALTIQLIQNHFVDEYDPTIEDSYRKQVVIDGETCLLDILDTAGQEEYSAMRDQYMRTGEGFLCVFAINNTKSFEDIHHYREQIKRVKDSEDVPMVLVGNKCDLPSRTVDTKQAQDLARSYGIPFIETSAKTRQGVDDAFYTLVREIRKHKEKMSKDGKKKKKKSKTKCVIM
KRAS WT-cRAF, sequence (P62937 whole entry): as the sequence (P62937 whole entry) above

Row | Compound | IC50 (KRAS WT-cRAF) [nM] | IC50 (KRAS G12V-cRAF) [nM] | IC50 (AsPC-1 cells; [1]) [nM] | IC50 (AsPC-1 p-ERK; [2]) [nM] | IC50 (NCI-H441 cells; Homo sapiens, 120 h) [nM] | IC50 (H441 p-ERK; Homo sapiens) [nM] | IC50 (AsPC-1 cells; AsPC-1 cells (KRAS G12D), 3D, 2% FBS, 5 days, read-out: AsPC-1 AP IC50) [nM] | IC50 (AsPC-1 p-ERK; AsPC-1 cells (KRAS G12D), 3 h incubation, read-out: AsPC-1 p-ERK IC50) [nM] | IC50 (NCI-H441 cells) [nM] | IC50 (H441 p-ERK) [nM]
1 | CCn1c(-c2cc(C#CCN3CCC(C#N)(CO)CC3)cnc2[C@H](C)OC)c2c3cc(ccc31)-c1csc(n1)C[C@H](NC(=O)[C@H]1[C@@H]3COC[C@@H]31)C(=O)N1CCC[C@H](N1)C(=O)OCC(C)(C)C2 (atropisomer, axis not shown) [Compound Z39] | 22.1 | 9.1 | – | – | – | – | – | – | – | –
2 | CCn1c(-c2cc(C#CCN3CCC(C#N)(CO)CC3)cnc2[C@H](C)OC)c2c3cc(ccc31)-c1csc(n1)C[C@H](NC(=O)[C@H]1[C@@H]3COC[C@@H]31)C(=O)N1CCC[C@H](N1)C(=O)OCC(C)(C)C2 (atropisomer, axis not shown; (Ra)) [Compound Z30, (1R,5S,6r)-N-((6^3S,4S,Z)-(Ra)-1^2-(5-(3-(4-cyano-4-(hydroxymethyl)piperidin-1-yl)prop-1-yn-1-yl)-2-((S)-1-methoxyethyl)pyridin-3-yl)-11-ethyl-10,10-dimethyl-5,7-dioxo-6^1,6^2,6^3,6^4,6^5,6^6-hexahydro-1^1H-8-oxa-2(4,2)-thiazola-1(5,3)-indola-6(1,3)-pyridazinacycloundecaphane-4-yl)-3-oxabicyclo[3.1.0]hexane-6-carboxamide] | – | – | 0.07 | 0.07 | 0.11 | 0.15 | – | – | – | –
3 | CCn1c(-c2cc(C#CCN3CCC(N)(C#N)CC3)cnc2[C@H](C)OC)c2c3cc(ccc31)-c1csc(n1)C[C@H](NC(=O)[C@H]1[C@@H]3COC[C@@H]31)C(=O)N1CCC[C@H](N1)C(=O)OCC(C)(C)C2 (atropisomer, axis not shown; (Ra)) [Compound Z51, (1R,5S,6r)-N-((6^3S,4S,Z)-(Ra)-1^2-(5-(3-(4-amino-4-cyanopiperidin-1-yl)prop-1-yn-1-yl)-2-((S)-1-methoxyethyl)-pyridin-3-yl)-1^1-ethyl-10,10-dimethyl-5,7-dioxo-6^1,6^2,6^3,6^4,6^5,6^6-hexahydro-11H-8-oxa-2(4,2)-thiazola-1(5,3)-indola-6(1,3)-pyridazinacycloundecaphane-4-yl)-3-oxabicyclo[3.1.0]hexane-6-carboxamide] | – | – | 0.42 | 0.27 | 0.28 | 0.18 | – | – | – | –
4 | CCn1c(-c2cc(C#CCN3CCN(C)CC3)cnc2[C@H](C)OC)c2c3cc(ccc31)-c1csc(n1)C[C@H](NC(=O)[C@H]1[C@@H]3COC[C@@H]31)C(=O)N1CCC[C@H](N1)C(=O)OCC(C)(C)C2 (atropisomer, axis not shown; (Ra)) [Compound Z83, (1R,5S,6r)-N-((6^3S,4S,Z)-1^1-ethyl-(Ra)-1^2-(2-((S)-1-methoxyethyl)-5-(3-(4-methylpiperazin-1-yl)prop-1-yn-1-yl)pyridin-3-yl)-10,10-dimethyl-5,7-dioxo-6^1,6^2,6^3,6^4,6^5,6^6-hexahydro-1^1H-8-oxa-2(4,2)-thiazola-1(5,3)-indola-6(1,3)-pyridazinacycloundecaphane-4-yl)-3-oxabicyclo[3.1.0]hexane-6-carboxamide] | – | – | 0.12 | 0.64 | 0.09 | 0.42 | – | – | – | –
5 | CO[C@@H](C)c1ncc(C#CCN2CCN(C(=O)CN)CC2)cc1-c1c2c3cc(ccc3n1C(C)C)-c1csc(n1)C[C@H](NC(=O)[C@H]1[C@@H]3COC[C@@H]31)C(=O)N1CCC[C@H](N1)C(=O)OCC(C)(C)C2 (atropisomer, axis not shown; (Ra)) [Compound Z84, (1R,5S,6r)-N-((6^3S,4S,Z)-(Ra)-1^2-(5-(3-(4-glycylpiperazin-1-yl)prop-1-yn-1-yl)-2-((S)-1-methoxyethyl)pyridin-3-yl)-1^1-isopropyl-10,10-dimethyl-5,7-dioxo-6^1,6^2,6^3,6^4,6^5,6^6-hexahydro-1^1H-8-oxa-2(4,2)-thiazola-1(5,3)-indola-6(1,3)-pyridazinacycloundecaphane-4-yl)-3-oxabicyclo[3.1.0]hexane-6-carboxamide] | – | – | 2.7 | 1.56 | 3.02 | 1.47 | – | – | – | –
6 | CCn1c(-c2cc(C#CCN3CCN(C(=O)CNC)CC3)cnc2[C@H](C)OC)c2c3cc(ccc31)-c1csc(n1)C[C@H](NC(=O)[C@H]1[C@@H]3COC[C@@H]31)C(=O)N1CCC[C@H](N1)C(=O)OCC(C)(C)C2 (atropisomer, axis not shown; (Ra)) [Compound Z164] | – | – | 2.59 | 2.08 | 2.04 | 1.51 | – | – | – | –
7 | CCn1c(-c2cc(C#CCN3CCN(C(=O)CN)CC3)cnc2[C@H](C)OC)c2c3cc(ccc31)-c1csc(n1)[C@@H](OCCN(C)C)[C@H](NC(=O)[C@H]1[C@H](C)[C@@H]1C)C(=O)N1CCC[C@H](N1)C(=O)OCC(C)(C)C2 (atropisomer, axis not shown; (Ra)) [Compound Z165] | – | – | 10 | 10.3 | 24.4 | 13.7 | – | – | – | –
8 | CCn1c(-c2cc(C#CCN3CCS(=O)(=O)CC3)cnc2[C@H](C)OC)c2c3cc(ccc31)-c1csc(n1)C[C@H](Nc1n[nH]c3cc(C)ccc13)C(=O)N1CCC[C@H](N1)C(=O)OCC(C)(C)C2 (atropisomer, axis not shown; (Ra)) [Compound Z171, (6^3S,4S,Z)-(Ra)-1^2-(5-(3-(1,1-dioxidothiomorpholino)prop-1-yn-1-yl)-2-((S)-1-methoxyethyl)pyridin-3-yl)-1^1-ethyl-10,10-dimethyl-4-((6-methyl-1H-indazol-3-yl)amino)-6^1,6^2,6^3,6^4,6^5,6^6-hexahydro-1^1H-8-oxa-2(4,2)-thiazola-1(5,3)-indola-6(1,3)-pyridazinacycloundecaphane-5,7-dione] | – | – | 1.36 | 0.97 | 2.78 | 0.53 | – | – | – | –
9 | CCn1c(-c2cc(C#CCN3CCCOCC3)cnc2[C@H](C)OC)c2c3cc(ccc31)-c1csc(n1)C[C@H](NC1=NOC(CC)(CC)C1)C(=O)N1CCC[C@H](N1)C(=O)OCC(C)(C)C2 (atropisomer, axis not shown; (Ra)) [Compound Z279, (6^3S,4S,Z)-(Ra)-1^2-(5-(3-(1,4-oxazepan-4-yl)prop-1-yn-1-yl)-2-((S)-1-methoxyethyl)pyridin-3-yl)-1^1-ethyl-10,10-dimethyl-4-((5,5-diethyl-4,5-dihydroisoxazol-3-yl)amino)-6^1,6^2,6^3,6^4,6^5,6^6-hexahydro-1^1H-8-oxa-2(4,2)-thiazola-1(5,3)-indola-6(1,3)-pyridazinacycloundecaphane-5,7-dione] | – | – | 6.05 | 1.83 | 3.26 | 1.03 | – | – | – | –
10 | (6^3S,4S,Z)-(Sa)-1^2-(5-(3-(1,4-oxazepan-4-yl)prop-1-yn-1-yl)-2-((S)-1-methoxyethyl)pyridin-3-yl)-1^1-ethyl-10,10-dimethyl-4-((5-ethyl-5-methyl-4,5-dihydroisoxazol-3-yl)amino)-6^1,6^2,6^3,6^4,6^5,6^6-hexahydro-1^1H-8-oxa-2(4,2)-thiazola-1(5,3)-indola-6(1,3)-pyridazinacycloundecaphane-5,7-dione [Compound Z173-2] | – | – | – | – | – | – | 1.61 | 0.86 | 1.82 | 0.81
